Source: patent US20230072421A1, “TARGETED RADIOPHARMACEUTICALS FOR THE DIAGNOSIS AND TREATMENT OF PROSTATE CANCER” (Bayer AS, priority 2019, published 2023)

How the values were obtained:
[1] = target: T1, PSMA-expressing LNCaP cells (Homo sapiens, UniProt Q04609); assay: Internalization assay (membrane bound and internalized Th-227); type: cell-based; conditions: 10 nM radiolabeled compound, Th-227 at 375 kBq/nmol, triplicates; for Internalized in LNCaP fmol/10^6 cells 30 min / Membrane bound in LNCaP fmol/10^6 cells 30 min: 30 min incubation; for Internalized in LNCaP fmol/10^6 cells 2 h / Membrane bound in LNCaP fmol/10^6 cells 2 h: 2 h incubation
T1 construct: PSMA-expressing LNCaP cells; endogenous in cells; host or cells: LNCaP
T1 sequence (Q04609 whole entry): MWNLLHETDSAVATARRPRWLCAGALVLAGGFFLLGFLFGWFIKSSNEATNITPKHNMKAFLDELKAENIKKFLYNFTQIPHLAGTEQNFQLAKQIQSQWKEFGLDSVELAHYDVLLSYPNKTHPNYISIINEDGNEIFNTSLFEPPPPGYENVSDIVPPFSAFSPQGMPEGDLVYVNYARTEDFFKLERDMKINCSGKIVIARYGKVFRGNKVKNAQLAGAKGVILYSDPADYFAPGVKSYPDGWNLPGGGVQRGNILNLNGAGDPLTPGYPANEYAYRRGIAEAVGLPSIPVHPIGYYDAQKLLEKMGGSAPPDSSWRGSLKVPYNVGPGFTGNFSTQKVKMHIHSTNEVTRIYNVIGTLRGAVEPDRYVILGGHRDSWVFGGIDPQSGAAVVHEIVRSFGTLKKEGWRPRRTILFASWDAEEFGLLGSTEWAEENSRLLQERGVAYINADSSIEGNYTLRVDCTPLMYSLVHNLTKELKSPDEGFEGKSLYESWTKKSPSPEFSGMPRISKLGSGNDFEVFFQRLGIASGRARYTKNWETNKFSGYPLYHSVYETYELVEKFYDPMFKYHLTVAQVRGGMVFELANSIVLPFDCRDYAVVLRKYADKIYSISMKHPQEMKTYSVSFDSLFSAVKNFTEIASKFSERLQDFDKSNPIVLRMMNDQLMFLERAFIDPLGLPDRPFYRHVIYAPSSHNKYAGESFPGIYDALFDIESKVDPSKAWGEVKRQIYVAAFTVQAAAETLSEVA
Procedure: For internalization assays 24 well plates (#3526, Corning) were coated with 200 μl Poly-L-Lysine (0.1 mg/ml, #3438-100-01, Fa. Cultrex) per well for 2 h at 37° C. […] Cells were incubated at 37° C. and 5% CO2 over night. On the following day 400 μl of the media were removed and a total of 200 μl growth medium added supplemented with PSMA-SMOLs labeled with Th-227 at 375 kBq/nmol in triplicates. Radiochemical purity of the labeling was analyzed by instant thin layer chromatography and found to be above 70% for all compounds used. The final concentration of radiolabeled SMOLs was in the test wells was 10 nM. Cells were incubated for 30 min or 2 h. After the incubation time supernatants were taken off and cells washed with PBS. Thereafter cells were washed twice with 0.2 ml 50 mM Glycine-HCl buffer (#55097, Sigma Aldrich) and once with PBS and the washing solutions combined in counting vials (#TK75-018, Fa. Corning) and subjected to gamma counting (1470 Wizard automatic gamma counter, Wallac). The resulting counts were attributed to membrane bound radioactivity. Cells were then lysed with 500 μl 0.3N NaOH (#181691.1211, Fa. PanReac AppliChem ITW Reagents) followed by another wash with 500 μl PBS. The NaOH lysate as well as the final wash were combined in vials and subjected to gamma counting as described above. Measured radioactivity was attributed to internalized fraction. Results were calculated as fmol of Th-227 per/10^cells in the membrane bound and internalized fractions from triplicate values.

[2] = tested on: LNCaP human prostate cancer cells; assay: LNCaP xenograft efficacy study (T/C tumor area); type: in vivo, SCID mice
Summary of the method: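 SCID mice with testosterone pellet bearing s.c. flank LNCaP xenografts (5×10^6 cells in Matrigel) were treated i.v. with a defined radioactive dose once tumors reached 35-50 mm^2 (n=10/group). Tumor area (caliper, longest diameter × perpendicular) measured 2-3× weekly; T/C ratio calculated from tumor areas when vehicle group closed.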

22Rv1 cells = assay: Cell proliferation assay (CellTiter-Glo, 5-day exposure), 22Rv1; type: cell-based; conditions: 22Rv1, 1000 cells/well, Th-227 labelled at 375 kBq/nmol, mean of 1 to 6 experiments
Summary of the method: (§1)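 CellTiter-Glo luminescence, day 0 (sister plates) vs day 5 of exposure to Th-227-labelled PSMA ligands. Seeding: VCaP 4000 cells/well; 22Rv1, C4-2, LNCaP 1000 cells/well; overnight 37 °C, 5% CO2 before treatment.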

C4-2 cells = assay: Cell proliferation assay (CellTiter-Glo, 5-day exposure), C4-2; type: cell-based; conditions: C4-2, 1000 cells/well, Th-227 labelled at 375 kBq/nmol, mean of 1 to 6 experiments
Summary of the method: as §1

LNCaP cells = assay: Cell proliferation assay (CellTiter-Glo, 5-day exposure), LNCaP; type: cell-based, human; conditions: LNCaP, 1000 cells/well; Th-227 labelled at 375 kBq/nmol; 5-day exposure; mean of 1 to 6 experiments
Summary of the method: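 Cells were seeded at 4000/well (VCaP) or 1000/well (22Rv1, C4-2, LNCaP), incubated overnight at 37 °C, 5% CO2, then treated in triplicate with serial dilutions of Th-227-labeled PSMA ligands (375 kBq/nmol). Viability was read by CellTiter-Glo luminescence at day 0 and after 5 days.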

VCaP cells = assay: Cell proliferation assay (CellTiter-Glo, 5-day exposure), VCaP; type: cell-based; conditions: 4000 cells/well, Th-227 labelled at 375 kBq/nmol, mean of 1 to 6 experiments
Summary of the method: as §1

[3] = Example V, day 27 after start of therapy, once 750 kBq/kg
[4] = Example II, 750 kBq/kg weekly for 5 weeks, day 120

Row | SMILES | Internalized in LNCaP fmol/10^6 cells 30 min [1] [fmol/10^6 cells] | Membrane bound in LNCaP fmol/10^6 cells 30 min [1] [fmol/10^6 cells] | Internalized in LNCaP fmol/10^6 cells 2 h [1] [fmol/10^6 cells] | Membrane bound in LNCaP fmol/10^6 cells 2 h [1] [fmol/10^6 cells] | T/Carea ([2]; Example IV, day 36 after start of therapy, once 1 MBq/kg) | T/Carea [2, 3] | Proliferation assay on cancer cell lines by TTCs Default Pivot #3 IC50 [kBq/mL] 22Rv1 1000cells 375kBq/nmol (mean) (22Rv1 cells) [kBq/mL] | Proliferation assay on cancer cell lines by TTCs Default Pivot #3 IC50 [kBq/mL] C4-2 1000cells 375kBq/nmol (mean) (C4-2 cells) [kBq/mL] | Proliferation assay on cancer cell lines by TTCs Default Pivot #3 IC50 [kBq/mL] LnCap 1000cells 375kBq/nmol (mean) (LNCaP cells) [kBq/mL] | Proliferation assay on cancer cell lines by TTCs Default Pivot #3 IC50 [kBq/mL] VCap 4000cells 375kBq/nmol (mean) (VCaP cells) [kBq/mL] | Mean tumor size [2, 4] [mm^2] | Tumor response [2, 4] | T/Carea ([2]; Example II, day 33 after start of therapy, 750 kBq/kg weekly for 5 weeks) | T/Carea ([2]; Example III, day 64 after start of therapy, single treatment 1.5 MBq/kg)
1 | O=C([O-])CN1CCN(CC(=O)[O-])CCN(CC(=O)NCC2CCC(C(=O)NC(Cc3ccc4ccccc4c3)C(=O)NCCCCC(NC(=O)NC(CCC(=O)O)C(=O)O)C(=O)O)CC2)CCN(CC(=O)[O-])CC1.[227Th+4] [Example 1-B-D-227Th, [^227Th]Thorium-(3S,10S,14R)-3-[(naphthalen-2-yl)methyl]-1,4,12-trioxo-1-{(1r,4S)-4-[(2-{4,7,10-tris[(carboxy-kappaO)methyl]-1,4,7,10-tetraazacyclododecan-1-yl-kappa^4N^1,N^4,N^7,N^10}acetamido)methyl]cyclohexyl}-2,5,11,13-tetraazahexadecane-10,14,16-tricarboxylate] | 3 | 16 | 12 | 30 | 0.81 | 0.91 | 1.28 | 3.15 | 0.49 | 4.52 | – | – | – | –
2 | O=C([O-])CN1CCN(CC(=O)[O-])CCN(CC(=O)NCC2CCC(C(=O)NC(Cc3ccc4ccccc4c3)C(=O)NCCCCC(NC(=O)NC(CCC(=O)O)C(=O)O)C(=O)O)CC2)CCN(CC(=O)[O-])CC1.[227Th+4] [Example 1-B-227Th, [^227Th]Thorium (3S,10S,14S)-3-[(naphthalen-2-yl)methyl]-1,4,12-trioxo-1-{(1r,4S)-4-[(2-{4,7,10-tris[(carboxy-kappaO)methyl]-1,4,7,10-tetraazacyclododecan-1-yl-kappa^4N^1,N^4,N^7,N^10}acetamido)methyl]cyclohexyl}-2,5,11,13-tetraazahexadecane-10,14,16-tricarboxylate] | 55 | 237 | 189 | 438 | – | 0.29 | 0.71 | 0.17 | 0.03 | 0.38 | 20 | full response | 0.18 | 0.51
